The values that follow come from patent US20210253562A1, “ACYLSUFONAMIDE COMPOUNDS USEFUL AS EP3 RECEPTOR ANTAGONISTS” (Janssen Pharmaceutica NV, priority 2018, published 2021).

Some results are limits rather than exact numbers.

In assay [1] the target is T1, EP3 membrane (EP3 receptor) (Homo sapiens, UniProt P43115).
T1 construct: purchased Millipore HTS092M
T1 sequence (P43115 1-390): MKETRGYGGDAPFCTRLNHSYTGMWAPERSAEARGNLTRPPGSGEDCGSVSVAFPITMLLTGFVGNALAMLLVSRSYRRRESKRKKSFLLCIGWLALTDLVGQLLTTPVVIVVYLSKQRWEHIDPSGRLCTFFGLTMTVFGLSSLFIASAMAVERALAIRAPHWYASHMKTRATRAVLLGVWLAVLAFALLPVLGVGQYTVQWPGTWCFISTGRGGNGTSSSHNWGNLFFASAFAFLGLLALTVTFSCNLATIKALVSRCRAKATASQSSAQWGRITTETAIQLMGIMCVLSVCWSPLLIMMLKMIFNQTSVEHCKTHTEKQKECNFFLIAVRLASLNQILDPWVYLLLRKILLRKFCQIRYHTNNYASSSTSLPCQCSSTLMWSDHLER
Put plainly: [3H]-PGE2 binding; EP3 competition binding (SPA). The procedure, abridged: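 Ki derived from one-site nonlinear regression of scintillation proximity counts after 2 h room-temperature equilibration. Serially diluted (1:3) compounds competed against [3H]-PGE2 (2 nM) for EP3 receptor membranes (2 μg/well) in pH 7.4 Tris buffer with 10 mM MgCl2, 1 mM EDTA, 0.1% DMSO.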

For assay [2], the target named is T2, CHO cells over-expressing the EP3 receptor (Homo sapiens, UniProt P43115).
T2 construct: expressed in transfected cells; host or cells: CHO cells
T2 sequence (P43115 1-390): T1 sequence (P43115 1-390)
Put plainly: CHO cell cAMP assay; EP3 cAMP antagonist dose response (sulprostone reference), HTRF. As to conditions: sulprostone 700 nM (EC80) and FSK 2 μM (EC70); read-out: CHO_cAMP IC50. Format: cell-based. The procedure: Biological Example 2: CHO Cell cAMP Assay
This assay monitored the cAMP generation in CHO cells over-expressing the EP3 receptor in the presence or absence of antagonist stimulated with Forskolin (FSK, CAS No. 66428-89-5) and a known EP3 Agonist (sulprostone, CAS No. 60325-46-4). For detection, a homogeneous competitive immunoassay (Time Resolved Fluorescence Energy Transfer (hTR-FRET)) was used.
Cells (6K cells per well) were plated in Poly-D-Lysine coated plates the day before the assay was to be run and were incubated at 37° C. One hour before the assay the media was removed and replaced with assay buffer (500 mL HBSS (+Ca)+2.5 mL 1M HEPES+6.66 mL 7.5% BSA) (starved at 37° C.). At the start of the assay the buffer was removed from the cells and replaced with buffer containing test compound(s). Sulprostone at an EC80 dose (700 nM) and FSK at an EC70 dose (2 μM) were added to initiate the reaction (37° C. for 30 minutes).
FSK increases cAMP production and sulprostone decreases cAMP production produced by FSK. In this assay, EP3 antagonists will increase the cAMP to the level of cAMP generated by FSK alone.
The reaction was terminated with the addition of cAMP detection reagents (labeled cAMP and labeled cAMP antibody in lysis buffer (HTRF reagent, which utilizes a cryptate-labeled anti-cAMP and d2-labeled cAMP-d2 is an HTRF acceptor fluorophore)). Approximately one hour later the plates were read on an Envision (Perkin Elmer) in HTRF mode. Well results were calculated based on a ratio of counts at 665 nm and 615 nm (data output was a calculation of the ratio: (read @665 nm/read @ 615 nm)*1000. For test compounds dosed serially, well results were converted to nM cAMP using a cAMP standard run on each plate. nM cAMP from a set of wells dosed with test compound(s) were plotted. nM cAMP was calculated for each well from a standard curve located on each plate (P1-12 and P13-24) by first calculating the slope and deriving the intercept(b):
[formula] NScAMP_s tan dard_cruve=m(nM cAMP_s tan dard_curve)+b
NSP, NSN, NSsample were converted to nM cAMP using the following equation: […]
IC50 values were determined from a […] (Hill equation) of a single 11-point compound dosing. A best-fit curve was determined by the minimum sum of squares method plotting cAMP produced vs compound concentration.
On the technique in general: Cyclic AMP is a second messenger, typically raised through Gs and lowered through Gi signalling.

Turning to `O=C(NC/C=C1\CCCc2cnn(-c3ccc(Br)cc3)c21)NS(=O)(=O)c1cc(Cl)c(Cl)s1` [Compound #75, (E)-N-((2-(1-(4-bromophenyl)-1,4,5,6-tetrahydro-7H-indazol-7-ylidene)ethyl)carbamoyl)-4,5-dichlorothiophene-2-sulfonamide], the affinity in assay [1] corresponds to a Ki of 1 nM. Besides, the 50% inhibitory concentration (IC50) (as a rule, the concentration that gives 50% inhibition) in assay [2] turned out to be 4 nM.

With `O=C(NC/C=C1\CCCc2cnn(Cc3ccc(Cl)cc3Cl)c21)NS(=O)(=O)c1cc2ccccc2o1` [Compound #28, (E)-N-((2-(1-(2,4-dichlorobenzyl)-1,4,5,6-tetrahydro-7H-indazol-7-ylidene)ethyl)carbamoyl)benzofuran-2-sulfonamide], the Ki (commonly a measure of affinity in units of concentration, obtained from inhibition or displacement) in assay [1] turned out to be 6 nM. Also, in assay [2], the concentration for half-maximal inhibition (IC50) amounted to 27 nM.

For `O=C(NS(=O)(=O)c1ccc(Cl)cc1)OC/C=C1\CC(F)(F)Cc2cnn(Cc3ccc(Cl)cc3Cl)c21` [Compound #37, (E)-2-(1-(2,4-dichlorobenzyl)-5,5-difluoro-1,4,5,6-tetrahydro-7H-indazol-7-ylidene)ethyl ((4-chlorophenyl)sulfonyl)carbamate], the Ki in assay [1] amounted to 108 nM. Besides, the 50% inhibitory concentration (IC50) in assay [2] was 87 nM.

In turn, `O=C(NC/C=C1\CCCc2cnn(C3CCN(c4ccc(F)cc4)CC3)c21)NS(=O)(=O)c1cc(Cl)c(Cl)s1` [Compound #123, (E)-4,5-dichloro-N-((2-(1-(1-(4-fluorophenyl)piperidin-4-yl)-1,4,5,6-tetrahydro-7H-indazol-7-ylidene)ethyl)carbamoyl)thiophene-2-sulfonamide] showed a Ki in assay [1] of 1 nM. In assay [2], the IC50 turned out to be 6 nM.

Consider `COc1ccc(S(=O)(=O)NC(=O)C/C=C2\CCCc3cnn(Cc4ccc(Cl)cc4Cl)c32)cc1` [Compound #23, (E)-3-(1-(2,4-dichlorobenzyl)-1,4,5,6-tetrahydro-7H-indazol-7-ylidene)-N-((4-methoxyphenyl)sulfonyl)propenamide], for which the inhibition constant Ki in assay [1] was 256 nM. Besides, the concentration for half-maximal inhibition (IC50) in assay [2] was 453 nM.

In turn, `O=C(NC/C=C1\CCCc2c(C(F)F)nn(Cc3ccc(Cl)cc3Cl)c21)NS(=O)(=O)c1ccc(Cl)cc1` [Compound #47, (E)-4-chloro-N-((2-(1-(2,4-dichlorobenzyl)-3-(difluoromethyl)-1,4,5,6-tetrahydro-7H-indazol-7-ylidene)ethyl)carbamoyl)benzenesulfonamide] showed a Ki in assay [1] of 65 nM. The IC50 in assay [2] worked out at 120 nM.

`O=C(C/C=C1\CCCc2cnn(Cc3ccc(Cl)cc3Cl)c21)NS(=O)(=O)c1ccc(Cl)s1` [Compound #17] yielded an inhibitory constant (Ki) in assay [1] of 19 nM. Also, the IC50 in assay [2] was 74 nM.

As to `O=C(NC/C=C1\CCCc2cnn(Cc3ccc(Cl)cc3Cl)c21)NS(=O)(=O)c1cnc2ccccc2c1` [Compound #12, (E)-N-((2-(1-(2,4-dichlorobenzyl)-1,4,5,6-tetrahydro-7H-indazol-7-ylidene)ethyl)carbamoyl)quinoline-3-sulfonamide], the affinity in assay [1], expressed as Ki, was 19 nM. In addition, the IC50 in assay [2] came to 48 nM.

In turn, `CC(C)S(=O)(=O)NC(=O)C/C=C1\CCCc2cnn(Cc3ccc(Cl)cc3Cl)c21` [Compound #14, (E)-3-(1-(2,4-dichlorobenzyl)-1,4,5,6-tetrahydro-7H-indazol-7-ylidene)-N-(isopropylsulfonyl)propenamide] registered a Ki in assay [1] of 2000 nM. Moreover, in assay [2], the half-inhibitory concentration (IC50) is 3700 nM.

As to `O=C(NC/C(F)=C1\CCCc2cnn(Cc3ccc(Cl)cc3Cl)c21)NS(=O)(=O)c1ccc(F)c(F)c1` [Compound #156, (Z)—N-((2-(1-(2,4-dichlorobenzyl)-1,4,5,6-tetrahydro-7H-indazol-7-ylidene)-2-fluoroethyl)carbamoyl)-3,4-difluorobenzenesulfonamide], in assay [1], the affinity corresponds to a Ki of 2 nM. For the same compound, the IC50 in assay [2] was determined as 4 nM.

Compound `O=C(NS(=O)(=O)c1ccc(Cl)cc1)OC/C=C1\c2c(cnn2Cc2ccc(Cl)cc2Cl)CCC1F` (stereo not shown) [Compound #51, (E)-2-(1-(2,4-dichlorobenzyl)-6-fluoro-1,4,5,6-tetrahydro-7H-indazol-7-ylidene)ethyl ((4-chlorophenyl)sulfonyl)carbamate] had a Ki in assay [1] greater than 10000 nM. Further, the IC50 in assay [2] was determined as 15700 nM.

In turn, `O=C(NC/C(F)=C1\COCc2cnn(-c3ccc(C(F)(F)F)cc3)c21)NS(=O)(=O)c1cc(Cl)c(Cl)s1` [Compound #119, (E)-4,5-dichloro-N-((2-fluoro-2-(1-(4-(trifluoromethyl)phenyl)-1,4-dihydropyrano[4,3-c]pyrazol-7(6H)-ylidene)ethyl)carbamoyl)thiophene-2-sulfonamide] had a Ki in assay [1] of 43 nM. Moreover, the IC50 in assay [2] is 230 nM.

In assay [1], `O=C(NC/C(F)=C1\CCCc2cnn(Cc3ccc(Cl)cc3Cl)c21)NS(=O)(=O)c1cc2ccccc2o1` [Compound #111, (Z)—N-((2-(1-(2,4-dichlorobenzyl)-1,4,5,6-tetrahydro-7H-indazol-7-ylidene)-2-fluoroethyl)carbamoyl)benzofuran-2-sulfonamide] came in with an inhibitory constant (Ki) of 59 nM. Further, the IC50 in assay [2] worked out at 399 nM.

Compound `O=C(NC/C=C1\CCCc2cnn(Cc3ccc(Cl)cc3Cl)c21)NS(=O)(=O)c1nc2ccccc2s1` [Compound #15, (E)-N-((2-(1-(2,4-dichlorobenzyl)-1,4,5,6-tetrahydro-7H-indazol-7-ylidene)ethyl)carbamoyl)benzo[d]thiazole-2-sulfonamide] yielded a Ki in assay [1] of 1 nM. Also, the half-inhibitory concentration (IC50) in assay [2] came to 5 nM.

In the case of `O=C(NS(=O)(=O)c1ccc(Cl)cc1)OC/C=C1\CCCc2cnn(-c3ncccn3)c21` [compound 95], the Ki in assay [1] is greater than 10000 nM. For the same compound, the IC50 in assay [2] was greater than 20000 nM.

In assay [1], `CC(C)Cn1ncc2c1/C(=C/CNC(=O)NS(=O)(=O)c1ccc(Cl)cc1)CCC2` [Compound #80, (E)-4-chloro-N-((2-(1-isobutyl-1,4,5,6-tetrahydro-7H-indazol-7-ylidene)ethyl)carbamoyl)benzenesulfonamide] yielded a Ki of 920 nM. Besides, the IC50 in assay [2] stood at 4400 nM.

Turning to `COc1ccc(F)c(S(=O)(=O)NC(=O)NC/C=C2\COCc3cnn(Cc4ccc(Cl)cc4Cl)c32)c1` [Compound #68, (Z)—N-((2-(1-(2,4-dichlorobenzyl)-1,4-dihydropyrano[4,3-c]pyrazol-7(6H)-ylidene)ethyl)carbamoyl)-2-fluoro-5-methoxybenzenesulfonamide], the inhibition constant Ki in assay [1] turned out to be 27 nM. The half-inhibitory concentration (IC50) in assay [2] was 32 nM.

With `CN(C/C=C1\COCc2cnn(Cc3ccc(Cl)cc3Cl)c21)C(=O)NS(=O)(=O)c1cc(Cl)c(Cl)s1` [Compound #55, (Z)-4,5-dichloro-N-((2-(1-(2,4-dichlorobenzyl)-1,4-dihydropyrano[4,3-c]pyrazol-7(6H)-ylidene)ethyl)(methyl)carbamoyl)thiophene-2-sulfonamide], in assay [1], the inhibition constant Ki was determined as 3 nM. The IC50 in assay [2] was 11 nM.

The compound `O=C(NC/C(F)=C1\CCCc2cnn(Cc3ccc(Cl)cc3Cl)c21)NS(=O)(=O)c1cccc(Cl)c1` [Compound #91, (Z)-3-chloro-N-((2-(1-(2,4-dichlorobenzyl)-1,4,5,6-tetrahydro-7H-indazol-7-ylidene)-2-fluoroethyl)carbamoyl)benzenesulfonamide] displayed an inhibition constant (Ki) in assay [1] of 18 nM. For the same compound, the half-maximal inhibitory concentration (IC50) in assay [2] was determined as 34 nM.

Consider `COc1ccc(F)cc1S(=O)(=O)NC(=O)NC/C=C1\COCc2cnn(Cc3ccc(Cl)cc3Cl)c21` [Compound #64, (Z)—N-((2-(1-(2,4-dichlorobenzyl)-1,4-dihydropyrano[4,3-c]pyrazol-7(6H)-ylidene)ethyl)carbamoyl)-5-fluoro-2-methoxybenzenesulfonamide], for which the Ki in assay [1] came out at 12 nM. Further, the IC50 in assay [2] turned out to be 81 nM.
